US20230085307A1, “PYRIDAZINONE COMPOUND AND HERBICIDE” (NISSAN CHEMICAL CORPORATION, priority 2019, published 2023)

Tests used:
barnyard grass [1] = assay: Test Example 3: herbicidal effect by foliage application, Wagner pot (Table 18, symbol H); assay type: in vivo, barnyard grass (Echinochloa crus-galli); conditions: amount of applied herbicide 320 g/ha
Outline: (§1)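 Plants were sown in alluvial soil held under 0.1–0.5 cm standing water and grown 14 days in a greenhouse at 25–30 °C. An emulsifiable formulation, water-diluted to the set dose, was then sprayed onto the foliage, and effects were scored three weeks later using previously defined criteria.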

Chinese sprangletop = assay: Test Example 3: herbicidal effect by foliage application, Wagner pot (Table 18, symbol D); assay type: in vivo, chinese sprangletop (Leptochloa chinensis); conditions: amount of applied herbicide 320 g/ha
Outline: as §1

rice flat sedge = assay: Test Example 3: herbicidal effect by foliage application, Wagner pot (Table 18, symbol E); assay type: in vivo, rice flat sedge (Cyperus iria); conditions: amount of applied herbicide 320 g/ha
Outline: as §1

southern crabgrass [2] = assay: Test Example 4: herbicidal effect by soil treatment (Table 19, symbol F); assay type: in vivo, southern crabgrass (Digitaria ciliaris); conditions: amount of applied herbicide 320 g/ha
Outline: (§2)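 Seeds were sown in sterilized diluvial soil and covered with about 1.5 cm of soil. An emulsion formulation diluted with water to a predetermined herbicide amount was sprayed evenly onto the soil surface. Plants grew in a greenhouse at 25° C. to 30° C., and the effect was scored three weeks after application using criteria from an earlier test.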

green foxtail [3] = assay: Test Example 4: herbicidal effect by soil treatment (Table 19, symbol G); assay type: in vivo, green foxtail (Setaria viridis); conditions: amount of applied herbicide 320 g/ha
Outline: as §2

barnyard grass [4] = assay: Test Example 4: herbicidal effect by soil treatment (Table 19, symbol H); assay type: in vivo, barnyard grass (Echinochloa crus-galli); conditions: amount of applied herbicide 320 g/ha
Outline: as §2

wild oat [5] = assay: Test Example 4: herbicidal effect by soil treatment (Table 19, symbol I); assay type: in vivo, wild oat (Avena fatua); conditions: amount of applied herbicide 320 g/ha
Outline: as §2

blackgrass [6] = assay: Test Example 4: herbicidal effect by soil treatment (Table 19, symbol J); assay type: in vivo, blackgrass (Alopecurus myosuroides); conditions: amount of applied herbicide 320 g/ha
Outline: as §2

Italian ryegrass [7] = assay: Test Example 4: herbicidal effect by soil treatment (Table 19, symbol K); assay type: in vivo, Italian ryegrass (Lolium multiflorum); conditions: amount of applied herbicide 320 g/ha
Outline: as §2

windgrass [8] = assay: Test Example 4: herbicidal effect by soil treatment (Table 19, symbol L); assay type: in vivo, windgrass (Apera spica-venti); conditions: amount of applied herbicide 320 g/ha
Outline: as §2

velvetleaf [9] = assay: Test Example 4: herbicidal effect by soil treatment (Table 19, symbol M); assay type: in vivo, velvetleaf (Abutilon theophrasti); conditions: amount of applied herbicide 320 g/ha
Outline: as §2

redroot pigweed [10] = assay: Test Example 4: herbicidal effect by soil treatment (Table 19, symbol N); assay type: in vivo, redroot pigweed (Amaranthus retroflexus); conditions: amount of applied herbicide 320 g/ha
Outline: as §2

lambsquarters [11] = assay: Test Example 4: herbicidal effect by soil treatment (Table 19, symbol O); assay type: in vivo, lambsquarters (Chenopodium album); conditions: amount of applied herbicide 320 g/ha
Outline: as §2

chickweed [12] = assay: Test Example 4: herbicidal effect by soil treatment (Table 19, symbol P); assay type: in vivo, common chickweed (Stellaria media); conditions: amount of applied herbicide 320 g/ha
Outline: as §2

persian speedwell [13] = assay: Test Example 4: herbicidal effect by soil treatment (Table 19, symbol R); assay type: in vivo, Persian speedwell (Veronica persica); conditions: amount of applied herbicide 320 g/ha
Outline: as §2

southern crabgrass [14] = assay: Test Example 5: herbicidal effect by foliage application, plastic box (Table 20, symbol F); assay type: in vivo, southern crabgrass (Digitaria ciliaris); conditions: foliage application, 320 g/ha, evaluated three weeks after application
Outline: (§3)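 Plants sown in sterilized diluvial soil and grown 14 days in a greenhouse at 25° C to 30° C, then sprayed on the foliage with the compound's emulsion diluted in water to a predetermined herbicide amount. Injury to weeds and crops scored three weeks after application on a visual rating scale.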

green foxtail [15] = assay: Test Example 5: herbicidal effect by foliage application, plastic box (Table 20, symbol G); assay type: in vivo, green foxtail (Setaria viridis); conditions: foliage application, 320 g/ha, evaluated three weeks after application
Outline: as §3

barnyard grass [16] = assay: Test Example 5: herbicidal effect by foliage application, plastic box (Table 20, symbol H); assay type: in vivo, barnyard grass (Echinochloa crus-galli); conditions: foliage application, 320 g/ha, evaluated three weeks after application
Outline: as §3

wild oat [17] = assay: Test Example 5: herbicidal effect by foliage application, plastic box (Table 20, symbol I); assay type: in vivo, wild oat (Avena fatua); conditions: foliage application, 320 g/ha, evaluated three weeks after application
Outline: as §3

blackgrass [18] = assay: Test Example 5: herbicidal effect by foliage application, plastic box (Table 20, symbol J); assay type: in vivo, blackgrass (Alopecurus myosuroides); conditions: foliage application, 320 g/ha, evaluated three weeks after application
Outline: as §3

Italian ryegrass [19] = assay: Test Example 5: herbicidal effect by foliage application, plastic box (Table 20, symbol K); assay type: in vivo, Italian ryegrass (Lolium multiflorum); conditions: foliage application, 320 g/ha, evaluated three weeks after application
Outline: as §3

windgrass [20] = assay: Test Example 5: herbicidal effect by foliage application, plastic box (Table 20, symbol L); assay type: in vivo, windgrass (Apera spica-venti); conditions: foliage application, 320 g/ha, evaluated three weeks after application
Outline: as §3

velvetleaf [21] = assay: Test Example 5: herbicidal effect by foliage application, plastic box (Table 20, symbol M); assay type: in vivo, velvetleaf (Abutilon theophrasti); conditions: foliage application, 320 g/ha, evaluated three weeks after application
Outline: as §3

redroot pigweed [22] = assay: Test Example 5: herbicidal effect by foliage application, plastic box (Table 20, symbol N); assay type: in vivo, redroot pigweed (Amaranthus retroflexus); conditions: foliage application, 320 g/ha, evaluated three weeks after application
Outline: as §3

lambsquarters [23] = assay: Test Example 5: herbicidal effect by foliage application, plastic box (Table 20, symbol O); assay type: in vivo, lambsquarters (Chenopodium album); conditions: foliage application, 320 g/ha, evaluated three weeks after application
Outline: as §3

chickweed [24] = assay: Test Example 5: herbicidal effect by foliage application, plastic box (Table 20, symbol P); assay type: in vivo, common chickweed (Stellaria media); conditions: foliage application, 320 g/ha, evaluated three weeks after application
Outline: as §3

persian speedwell [25] = assay: Test Example 5: herbicidal effect by foliage application, plastic box (Table 20, symbol R); assay type: in vivo, Persian speedwell (Veronica persica); conditions: foliage application, 320 g/ha, evaluated three weeks after application
Outline: as §3

Row | Structure (SMILES) | herbicidal effect on H: barnyard grass (barnyard grass [1]) | herbicidal effect on D: Chinese sprangletop (Chinese sprangletop) | herbicidal effect on E: rice flat sedge (rice flat sedge) | F: southern crabgrass, herbicidal effect rating (southern crabgrass [2]) | G: green foxtail, herbicidal effect rating (green foxtail [3]) | H: barnyard grass, herbicidal effect rating (barnyard grass [4]) | I: wild oat, herbicidal effect rating (wild oat [5]) | J: blackgrass, herbicidal effect rating (blackgrass [6]) | K: Italian ryegrass, herbicidal effect rating (Italian ryegrass [7]) | L: windgrass, herbicidal effect rating (windgrass [8]) | M: velvetleaf, herbicidal effect rating (velvetleaf [9]) | N: redroot pigweed, herbicidal effect rating (redroot pigweed [10]) | O: lambsquarters, herbicidal effect rating (lambsquarters [11]) | P: chickweed, herbicidal effect rating (chickweed [12]) | R: persian speedwell, herbicidal effect rating (persian speedwell [13]) | herbicidal effect on F: southern crabgrass (criteria 0-5) (southern crabgrass [14]) | herbicidal effect on G: green foxtail (criteria 0-5) (green foxtail [15]) | herbicidal effect on H: barnyard grass (criteria 0-5) (barnyard grass [16]) | herbicidal effect on I: wild oat (criteria 0-5) (wild oat [17]) | herbicidal effect on J: blackgrass (criteria 0-5) (blackgrass [18]) | other results
1 | Cc1ccc2sc(-c3ccc4c(c3)OCO4)c(-c3c(O)c(C)nn(C)c3=O)c2c1 [2-156] | 3 (Herbicidal rate of 40% or more and less than 70%) | 0 (Herbicidal rate of 5% or less (almost no effect)) | 4 (Herbicidal rate of 70% or more and less than 90%) | 0 (Herbicidal rate of 5% or less (almost no effect)) | 0 (Herbicidal rate of 5% or less (almost no effect)) | 0 (Herbicidal rate of 5% or less (almost no effect)) | 0 (Herbicidal rate of 5% or less (almost no effect)) | 0 (Herbicidal rate of 5% or less (almost no effect)) | 0 (Herbicidal rate of 5% or less (almost no effect)) | 0 (Herbicidal rate of 5% or less (almost no effect)) | 0 (Herbicidal rate of 5% or less (almost no effect)) | 2 (Herbicidal rate of 20% or more and less than 40%) | 3 (Herbicidal rate of 40% or more and less than 70%) | 4 (Herbicidal rate of 70% or more and less than 90%) | 4 (Herbicidal rate of 70% or more and less than 90%) | 0 (Herbicidal rate of 5% or less (almost no effect)) | 0 (Herbicidal rate of 5% or less (almost no effect)) | 0 (Herbicidal rate of 5% or less (almost no effect)) | 0 (Herbicidal rate of 5% or less (almost no effect)) | 0 (Herbicidal rate of 5% or less (almost no effect)) | herbicidal effect on K: Italian ryegrass (criteria 0-5) (Italian ryegrass [19]): 1 (Herbicidal rate of 5% or more and less than 20%); herbicidal effect on L: windgrass (criteria 0-5) (windgrass [20]): 0 (Herbicidal rate of 5% or less (almost no effect)); herbicidal effect on M: velvetleaf (criteria 0-5) (velvetleaf [21]): 4 (Herbicidal rate of 70% or more and less than 90%); herbicidal effect on N: redroot pigweed (criteria 0-5) (redroot pigweed [22]): 3 (Herbicidal rate of 40% or more and less than 70%); herbicidal effect on O: lambsquarters (criteria 0-5) (lambsquarters [23]): 0 (Herbicidal rate of 5% or less (almost no effect)); herbicidal effect on P: chickweed (criteria 0-5) (chickweed [24]): 5 (Herbicidal rate of 90% or more (almost completely withered)); herbicidal effect on R: persian speedwell (criteria 0-5) (persian speedwell [25]): 5 (Herbicidal rate of 90% or more (almost completely withered))
2 | C#Cc1ccc2sc(-c3ccccc3OC)c(-c3c(O)c(C)nn(C)c3=O)c2c1 [2-187] | 4 (Herbicidal rate of 70% or more and less than 90%) | 0 (Herbicidal rate of 5% or less (almost no effect)) | 0 (Herbicidal rate of 5% or less (almost no effect)) | 1 (Herbicidal rate of 5% or more and less than 20%) | 4 (Herbicidal rate of 70% or more and less than 90%) | 3 (Herbicidal rate of 40% or more and less than 70%) | 0 (Herbicidal rate of 5% or less (almost no effect)) | 4 (Herbicidal rate of 70% or more and less than 90%) | 4 (Herbicidal rate of 70% or more and less than 90%) | 5 (Herbicidal rate of 90% or more (almost completely withered)) | 2 (Herbicidal rate of 20% or more and less than 40%) | 4 (Herbicidal rate of 70% or more and less than 90%) | 4 (Herbicidal rate of 70% or more and less than 90%) | 3 (Herbicidal rate of 40% or more and less than 70%) | 0 (Herbicidal rate of 5% or less (almost no effect)) | 4 (Herbicidal rate of 70% or more and less than 90%) | 3 (Herbicidal rate of 40% or more and less than 70%) | 1 (Herbicidal rate of 5% or more and less than 20%) | 0 (Herbicidal rate of 5% or less (almost no effect)) | 5 (Herbicidal rate of 90% or more (almost completely withered)) | herbicidal effect on K: Italian ryegrass (criteria 0-5) (Italian ryegrass [19]): 4 (Herbicidal rate of 70% or more and less than 90%); herbicidal effect on L: windgrass (criteria 0-5) (windgrass [20]): 5 (Herbicidal rate of 90% or more (almost completely withered)); herbicidal effect on M: velvetleaf (criteria 0-5) (velvetleaf [21]): 5 (Herbicidal rate of 90% or more (almost completely withered)); herbicidal effect on N: redroot pigweed (criteria 0-5) (redroot pigweed [22]): 5 (Herbicidal rate of 90% or more (almost completely withered)); herbicidal effect on O: lambsquarters (criteria 0-5) (lambsquarters [23]): 4 (Herbicidal rate of 70% or more and less than 90%); herbicidal effect on P: chickweed (criteria 0-5) (chickweed [24]): 5 (Herbicidal rate of 90% or more (almost completely withered)); herbicidal effect on R: persian speedwell (criteria 0-5) (persian speedwell [25]): 5 (Herbicidal rate of 90% or more (almost completely withered))
